Patent US20140127288A1, “LIPOSOME CONTAINING PYRROLOQUINOLINE QUINONE AND SUGAR” (MITSUBISHI GAS CHEMICAL COMPANY, INC., priority 2011, published 2014)

System: Chinese hamster ovary cells (CHO-DHFR)
Experiment: Proliferation study (WST assay)
Assay type: cell-based
Settings: vs cells treated with culture medium alone; one day incubation
Description: Chinese hamster ovary cells (CHO-DHFR; obtained from Dainippon Sumitomo Pharma Co., Ltd.) was cultured in the culture medium, α-MEM+10% fetal calf serum, in an atmosphere of 5% CO2 at 37° C. A 96-well microplate (IWAKI & Co., Ltd.) was used and cells were added to each well at 5000 cells with 100 μl of the culture medium, and the microplate was incubated overnight. After removing the culture medium, a new culture medium containing the liposome composition prepared in Examples 1 to 4 and Comparative Examples 1 to 3 at a predetermined concentration was added to each well. After one day incubation, a test solution in a WST Assay Kit was reacted for 1 hour according to a procedure of the Kit (Dojindo Laboratories), and the absorbance of each well was measured at 450 nm. In WST Assay, the absorbance obtained is proportional to the number of live cells. The liposome compositions prepared in Examples 1 to 4 and Comparative Examples 1 to 3 and […] (for Comparative Example 4) were used as samples, and the samples were diluted by the culture medium and subjected to a test. The concentrations used in the test were 500, 250, 125, 62, 31, 16, 8, 4, 2, 1, 0.5, and 0 μM. In Comparative Example 2, the concentration of the liposome composition was used as the test concentration of the sample. The test was conducted for each sample twice and the average was calculated. […]

For `O=C(O)c1cc(C(=O)O)c2c(n1)C(=O)C(=O)c1cc(C(=O)O)[nH]c1-2` [Comparative Example 4, Pyrroloquinoline quinone disodium], the “Concentration of growth inhibition (total cell number decreases by 10%)” value was 500 µM.
